What is called GI50 is the concentration that inhibits growth by half.

What all share (type): cell-based
Assay [1] has as its system Ba/F3 cells expressing EGFR-wt. The assay is described as follows: Growth inhibition (GI50) of Ba/F3 cells expressing EGFR-wt, Celltiter glo. To be noted: Mus musculus, BaF3, 72 h. Summed up: (§1)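 Ba/F3 cells carrying each EGFR variant were plated at 100,000 cells/ml; after 4 h, compound was added as 10-point 4-fold dilutions (top stock 2 mM, 0.5% DMSO). After 72 h at 37 °C, viability was read by CellTiter-Glo; GI50 is the molar concentration (μM) giving 50% growth inhibition.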
For orientation: ATP-based viability assays read luminescence as a measure of living cells.

Assay [2] concerns Ba/F3 cells expressing del19/T790M/C797S (EGFR-DTC). Kind of assay: Growth inhibition (GI50) of Ba/F3 cells expressing del19/T790M/C797S (EGFR-DTC), Celltiter glo. As to conditions: Mus musculus, BaF3, 72 h. Summed up:
as §1

Assay [3] has as its system Ba/F3 cells expressing L858R/T790M/C797S (EGFR-LTC). The assay is described as follows: Growth inhibition (GI50) of Ba/F3 cells expressing L858R/T790M/C797S (EGFR-LTC), Celltiter glo. As to conditions: Mus musculus, BaF3, 72 h. Summed up: as §1
The subject of a further assay is parental Ba/F3 cell line. The assay is described as follows: Growth inhibition (GI50) of the parental Ba/F3 cell line (not introduced with EGFR variants), Celltiter glo. To be noted: Mus musculus, BaF3, 72 h, parental Ba/F3 cells. The essentials: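 Parental Ba/F3 cells (100,000 cells/ml) were treated with 10-point, 4-fold compound dilutions (0.5% DMSO; top stock 2 mM) for 72 h at 37 °C, 5% CO2. Viability was read by CellTiter-Glo; GI50 is the concentration (μM) giving 50% growth inhibition.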

As for `COc1cc(N2CCC(N3CCN(C)CC3)CC2)c(Cl)cc1Nc1ncc(Cl)c(Nc2cc(Cl)c(Cl)cc2NS(C)(=O)=O)n1` [Example 103], the 50% growth inhibitory concentration (GI50) in assay [1] fell in the range of 0.5 to 2 µM; in assay [2], 0.1 to 0.5 µM; in assay [3], 0.025 to 0.1 µM; with parental Ba/F3 cell line, 2 to 10 µM.
The like results for `COc1cc(N2CCC(N(C)CCN(C)C)CC2)c(C)cc1Nc1ncc(Cl)c(Nc2cc(Cl)c(Cl)cc2NS(C)(=O)=O)n1` [Example 104, N-(4,5-dichloro-2-((5-chloro-2-((4-(4-((2-(dimethylamino)ethyl)(methyl)amino)piperidin-1-yl)-2-methoxy-5-methylphenyl)amino)pyrimidin-4-yl)amino)phenyl)methanesulfonamide] were, in that order, 0.5 to 2 µM, 0.5 to 2 µM, 0.5 to 2 µM and 0.5 to 2 µM.
The like results for `COc1cc(N(C)CCCN2CCN(C)CC2)c(C)cc1Nc1ncc(Cl)c(Nc2cc(Cl)c(Cl)cc2NS(C)(=O)=O)n1` [Example 105, N-(4,5-dichloro-2-((5-chloro-2-((2-methoxy-5-methyl-4-(methyl(3-(4-methylpiperazin-1-yl)propyl)amino)phenyl)amino)pyrimidin-4-yl)amino)phenyl)methanesulfonamide] were, in that order, over 10 µM, over 10 µM, over 10 µM and over 10 µM.
The like results for `COc1cc(N2CCC(N3CCN(C)CC3)CC2)c(C)cc1Nc1ncc(Br)c(Nc2cc(C)ccc2NS(C)(=O)=O)n1` [Example 106, N-(2-((5-bromo-2-((2-methoxy-5-methyl-4-(4-(4-methylpiperazin-1-yl)piperidin-1-yl)phenyl)amino)pyrimidin-4-yl)amino)-4-methylphenyl)methanesulfonamide] were, in that order, 0.5 to 2 µM, 0.001 to 0.025 µM, 0.025 to 0.1 µM and 0.5 to 2 µM.
For `COc1cc(N2CCC(N3CCN(C)CC3)CC2)c(Cl)cc1Nc1ncc(Br)c(Nc2cc(C)ccc2NS(C)(=O)=O)n1` [Example 107, N-(2-((5-bromo-2-((5-chloro-2-methoxy-4-(4-(4-methylpiperazin-1-yl)piperidin-1-yl)phenyl)amino)pyrimidin-4-yl)amino)-4-methylphenyl)methanesulfonamide], the GI50 lay within 0.5 to 2 µM in assay [1], 0.025 to 0.1 µM in assay [2], 0.1 to 0.5 µM in assay [3] and 0.5 to 2 µM in the assay with parental Ba/F3 cell line.
For `COc1cc(N2CCC(N3CCN(C)CC3)CC2)c(F)cc1Nc1ncc(Br)c(Nc2cc(C)ccc2NS(C)(=O)=O)n1` [Example 108], the 50% growth inhibitory concentration (GI50) in assay [1] lay within 0.5 to 2 µM; in assay [2] it was 0.025 to 0.1 µM; in assay [3], 0.1 to 0.5 µM; in the assay with parental Ba/F3 cell line it was 2 to 10 µM.
Take `Cc1ccc(NS(C)(=O)=O)c(Nc2nc(Nc3cc(C)c(N4CCC(N5CCN(C)CC5)CC4)cc3Cl)ncc2Br)c1` [Example 109, N-(2-((5-bromo-2-((2-chloro-5-methyl-4-(4-(4-methylpiperazin-1-yl)piperidin-1-yl)phenyl)amino)pyrimidin-4-yl)amino)-4-methylphenyl)methanesulfonamide]: the GI50 in assay [1] lay in the range of 0.1 to 0.5 µM; in assay [2], 0.025 to 0.1 µM; in assay [3], 0.001 to 0.025 µM; in the assay on parental Ba/F3 cell line, 0.5 to 2 µM.
Turning to `COc1cc(N2CCC(N3CCN(C)CC3)CC2)c(C)cc1Nc1ncc(Cl)c(N(c2ccc3scnc3c2NS(C)(=O)=O)S(C)(=O)=O)n1` [Example 110, N-(5-chloro-2-((2-methoxy-5-methyl-4-(4-(4-methylpiperazin-1-yl)piperidin-1-yl)phenyl)amino)pyrimidin-4-yl)-N-(4-(methylsulfonamido)benzo[d]thiazol-5-yl)methanesulfonamide], the concentration for 50% growth inhibition (GI50) in assay [1] was in the range of 0.1 to 0.5 µM; in assay [2], 0.1 to 0.5 µM; in assay [3], 0.025 to 0.1 µM; in the assay on parental Ba/F3 cell line, 0.5 to 2 µM.
Take `CN1CCN(C2CCN(c3ccc(Nc4ncc(Cl)c(N(c5ccc6scnc6c5NS(C)(=O)=O)S(C)(=O)=O)n4)cc3F)CC2)CC1` [Example 112, N-(5-chloro-2-((3-fluoro-4-(4-(4-methylpiperazin-1-yl)piperidin-1-yl)phenyl)amino)pyrimidin-4-yl)-N-(4-(methylsulfonamido)benzo[d]thiazol-5-yl)methanesulfonamide]: the 50% growth inhibitory concentration (GI50) in assay [1] is 0.1 to 0.5 µM; in assay [2] it was 0.025 to 0.1 µM; in assay [3], 0.025 to 0.1 µM; with parental Ba/F3 cell line, 0.1 to 0.5 µM.
Regarding `CN1CCN(C2CCN(c3ncc(Nc4ncc(Cl)c(N(c5ccc6scnc6c5NS(C)(=O)=O)S(C)(=O)=O)n4)cc3F)CC2)CC1` [Example 113, N-(5-chloro-2-((5-fluoro-6-(4-(4-methylpiperazin-1-yl)piperidin-1-yl)pyridin-3-yl)amino)pyrimidin-4-yl)-N-(4-(methylsulfonamido)benzo[d]thiazol-5-yl)methanesulfonamide], the 50% growth inhibitory concentration (GI50) in assay [1] was in the range of 2 to 10 µM; in assay [2], 0.5 to 2 µM; in assay [3], 0.5 to 2 µM; with parental Ba/F3 cell line, 2 to 10 µM.
For `COc1cc(N2CCC(N3CCN(C)CC3)CC2)c(Cl)cc1Nc1ncc(Cl)c(N(c2ccc3scnc3c2NS(C)(=O)=O)S(C)(=O)=O)n1` [Example 114, N-(5-chloro-2-((5-chloro-2-methoxy-4-(4-(4-methylpiperazin-1-yl)piperidin-1-yl)phenyl)amino)pyrimidin-4-yl)-N-(4-(methylsulfonamido)benzo[d]thiazol-5-yl)methanesulfonamide], the GI50 in assay [1] lay within 0.5 to 2 µM; in assay [2] it was 0.1 to 0.5 µM; in assay [3], 0.1 to 0.5 µM; in the assay with parental Ba/F3 cell line, 0.5 to 2 µM.
As for `COc1nc(N2CCC(N3CCN(C)CC3)CC2)c(C)cc1Nc1ncc(Cl)c(Nc2ccc3ncccc3c2NS(C)(=O)=O)n1` [Example 116, N-(6-((5-chloro-2-((2-methoxy-5-methyl-6-(4-(4-methylpiperazin-1-yl)piperidin-1-yl)pyridin-3-yl)amino)pyrimidin-4-yl)amino)quinolin-5-yl)methanesulfonamide], the GI50 in assay [1] lay within 0.5 to 2 µM; in assay [2] it was 0.025 to 0.1 µM; in assay [3] it was 0.1 to 0.5 µM; with parental Ba/F3 cell line it was 2 to 10 µM.
In the same order, the values of `COc1nc(N2CCC(N3CCOCC3)CC2)ccc1Nc1ncc(Cl)c(Nc2ccc3ncccc3c2NS(C)(=O)=O)n1` [Example 117, N-(6-((5-chloro-2-((2-methoxy-6-(4-morpholinopiperidin-1-yl)pyridin-3-yl)amino)pyrimidin-4-yl)amino)quinolin-5-yl)methanesulfonamide] are 0.5 to 2 µM, 0.5 to 2 µM, 0.5 to 2 µM and 2 to 10 µM.
The like results for `COc1cc(N2CCC(N3CCN(C)CC3)CC2)c(Cl)cc1Nc1ncc(Cl)c(Nc2ccc3ncccc3c2NS(C)(=O)=O)n1` [Example 118] were, in that order, 0.5 to 2 µM, 0.1 to 0.5 µM, 0.1 to 0.5 µM and over 10 µM.
`COc1cc(N2CCN(C)CC2)ccc1Nc1ncc(Cl)c(Nc2ccc3ncccc3c2NS(C)(=O)=O)n1` [Example 119, N-(6-((5-chloro-2-((2-methoxy-4-(4-methylpiperazin-1-yl)phenyl)amino)pyrimidin-4-yl)amino)quinolin-5-yl)methanesulfonamide]: the GI50 lay in the range of 0.5 to 2 µM in assay [1], 0.5 to 2 µM in assay [2], 0.5 to 2 µM in assay [3] and 2 to 10 µM in the assay on parental Ba/F3 cell line.

These data come from patent US20240228458A1, “PYRIMIDINE DERIVATIVE HAVING PROTEIN KINASE INHIBITORY ACTIVITY, AND THERAPEUTIC PHARMACEUTICAL COMPOSITION COMPRISING SAME” (THERAPEX CO., LTD., priority 2021, published 2024).
